Results on 8 compounds are retold here after patent US20250066292A1 (The Regents of the University of California, priority 2021, published 2025).

Series [1] relates to CDAHFD induced mouse models of NASH. The series is described as follows: Study 1 NASH/Mouse (CDAHFD diet). The following applies: 200 mg/kg once daily gavage for 2 weeks; for intrahepatic fibrosis: compared with control group. Type of series: in vivo, mouse (C57BL/6 male). The procedure:
Study 1—NASH/Mouse. Mice had at least received 8 weeks of CDAHFD diet before starting the study and continued to receive this diet during the next phase of the study. There were 4 mice per group (C57BL/6 male): • Control group (c1), water administered once daily by gavage for 2 weeks; • 200 mg/kg of Drug 0 once daily gavage therapy for 2 weeks; • 200 mg/kg of Drug 2 once daily gavage therapy for 2 weeks; • 200 mg/kg of Drug 4 once daily gavage therapy for 2 weeks. FIG. 10A depicts the study outline.

For series [2], the system named is cystinotic fibroblasts. In words: Intracellular D2-cysteamine and prodrug levels following continual drug exposure. Type of series: cell-based, human. The following applies: for intracellular D2-cysteamine levels: 100 uM in media, continual exposure. The method, then: (§1) Cystine Depletion Study. Dermal cystinotic fibroblasts were cultured in medium containing BL0948, BL0940 or D4-Cystamine at the same 100 uM concentration:
Intracellular D2-cysteamine levels are measured following continual drug exposure (in media) to cystinotic fibroblasts (FIG. 7).

For series [3], the system named is Dermal cystinotic fibroblasts. The series is described as follows: Cystine Depletion Study with BL0948, BL0940 or D4-Cystamine. Type of series: cell-based, human. To be noted: 100 uM in medium, continual exposure. The method, then: as §1
Intracellular cystine depletion over time. […] This likely represents a rapid exposure to D2-cysteamine after intracellular uptake. D4-cystamine will most likely reduce after crossing the cell membrane (peak level seen at 45 mins). BL0948 most likely has reduced to D2-cysteamine and the rearranged isomer in the medium before crossing the cell membrane. It is possible that after extracellular reduction that the ratio of D2-Cysteamine to rearranged analog is 10-20:1.

Series [4] has as its system CDAHFD induced mouse models of NASH. In words: Murine CDAHFD NASH Study 2 comparing prodrug analogs BL0940 and BL0948. Type of series: in vivo, mouse (C57BL/6 male). To be noted: lower dose of BL0940, once daily gavage. The text has this:
Mice had at least received 8 weeks of CDAHDF diet before starting the study and continued to receive this diet during the next phase of the study. There were 8 mice per group (C57BL/6 male).
• HD BL0940 (High dose) once daily by gavage therapy for 4 • LD BL0940 (low dose) once daily by gavage therapy for 4 • BL0948 once daily by gavage therapy for 4 weeks
The MW of BL0940 is higher than BL0948 and so a higher dose was given. That is, HD BL0940 and BL0948 had capability of releasing same number of D2-cysteamine molecules.

The nature of series [5]: Prodrug stability and conversion in the medium and within the cell. The series is classed as in vitro ADME. The text has this:
This prodrug analog, BL0940, is very stable both in the medium and within the cell.

For series [6], the system named is cystinotic fibroblasts. In words: Cysteamine and cystamine (and prodrug) measurement during constant exposure. The series is classed as cell-based, human. The following applies: 100 uM; for Cysteamine levels (intracellular) / cystamine levels (intracellular): constant exposure 0 min to 5 h. The procedure: (§2) In vitro experiments with prodrugs in cystinotic fibroblasts. Fibroblasts from a de-identified cystinotic patient were split 3× from 2 plates into 12 plates. An experimental compound, BL-0856, was studied using the following protocols. Several timepoints of cystamine was also performed for comparison. The constant incubation time series for the new compound was: 0, 15 min, 30 min, 1 h, 3 h, and 5 h. The cystamine timepoints were 0, 30 min, 1 h, and 5 h. There was also a washout experiment done for 2 timepoints of the experimental compound, where after 3 hours of constant incubation, the media was exchanged with no compound, and incubated for either 1 h or 3 h. Harvesting of cells on the plate went as follows 2× washes with PBS that included 5 mM N-ethylmaleimide for trapping free thiol groups, and then scraping the plates with an acidified organic solvent extraction solution containing d4-NEM-cysteamine, d4-cystine, d8-cystamine, ^13C^15N NEM-glutathione, and ^13C, ^15N GSSG as internal standards. All samples were run on an API 4500 triple quadrupole LC-MS/MS, with selective reaction monitoring (SRM/MRM) for the following compounds of interest: cystine, cysteine, cystamine, reduced glutathione, oxidized glutathione (GSSG). […] All data fit well to single exponential curves (either decay or association), except where mentioned.
Following incubation, cells are washed 2× in PBS containing N-ethylmaleimide.

Series [7] concerns cystinotic fibroblasts. The series is described as follows: Glutathione and oxidized glutathione measurement during constant exposure. The series is classed as cell-based, human. The following applies: 100 uM; for oxidized glutathione (GSSG) / ratio of GSH/GSSG: versus 0-minute controls. The procedure:
as §2
Glutathione and oxidized glutathione measurement during constant cystamine or BL-0856 exposure: Fibroblast cultures are exposed to 100 uM cystamine or 100 uM BL-0856 for the following timepoints: 0 min, […], 30 min, 1 h, 3 h, and 5 h. Following incubation, cells are washed 2× in PBS containing N-ethylmaleimide. After removing the wash, the cells are harvested on ice using 80% acetonitrile/1% formic acid, containing stable isotope internal standard for glutathione and oxidized glutathione.

Series [8] deals with cystinotic fibroblasts. The series is described as follows: Cystine measurement during constant cystamine or BL-0856 exposure. The following applies: 100 uM, constant exposure 0 min to 5 h, compared with cystamine. The series is classed as cell-based, human. The method, then: Drug concentrations: BL-0856 powder was resuspended in water at a concentration of 25 mM. 40 μL of this solution was added to 10 mL of media for a final concentration of 100 uM.
Cystamine was made from high pH oxidation of cysteamine-bitartrate powder (w/Ammonium hydroxide), at a concentration of 25 mM. […] Since this was used for only several timepoints of a control, this was deemed sufficient for this purpose. The drug was also administered to cells at a final concentration of 100 uM.
In vitro experiments with prodrugs in cystinotic fibroblasts. Fibroblasts from a de-identified cystinotic patient were split 3× from 2 plates into 12 plates. An experimental compound, BL-0856, was studied using the following protocols. Several timepoints of cystamine was also performed for comparison. The constant incubation time series for the new compound was: 0, 15 min, 30 min, 1 h, 3 h, and 5 h. The cystamine timepoints were 0, 30 min, 1 h, and 5 h. There was also a washout experiment done for 2 timepoints of the experimental compound, where after 3 hours of constant incubation, the media was exchanged with no compound, and incubated for either 1 h or 3 h. […]

The test system of series [9] is cystinotic fibroblasts. In words: Cysteine measurement during constant exposure. Type of series: cell-based, human. The following applies: 100 uM, compared with cystamine. The method, then:
as §2, with “mentioned. […]” for “mentioned.”

Series [10] concerns cystinotic fibroblasts. The series is described as follows: Cystine measurement after washout. The series is classed as cell-based, human. The following applies: 100 uM for 3 h, then washout in regular media 0 min, 1 h. The procedure: as §2, with “mentioned. […]” for “mentioned.”
Series [11] in a line: Stability of BL-0856 resuspended in water (LC-MS). The series is classed as physicochemical. To be noted: 25 mM in water, 1-week post-resuspension. The method, then: Drug concentrations: BL-0856 powder was resuspended in water at a concentration of 25 mM. 40 μL of this solution was added to 10 mL of media for a final concentration of 100 uM. […] Based upon the LC-MS profile, BL-0856 was likely >80-90% pure (unhydrolyzed) when used in the experiments. A method for the reduced intermediate form was also made, but none of it was found present in the neat standard.

In series [12] the test system is circulating white blood cells. To be noted: taken regularly, measured in circulating white blood cells; cited from earlier work.
For series [13] the following is noted: 400-1000 IU/day for 4-10 months, cited from earlier work.

In the case of `[2H]C([2H])(CN)SSC([2H])([2H])CN` [D4-cystamine], the intrahepatic fibrosis entry in series [1] was “significant reduction”.

For `[2H]C([2H])(CN)SSC[C@H](NC(C)=O)C(=O)OCC` [BL0940], in the series on cystinotic fibroblasts [2], the “intracellular D2-cysteamine levels” value is “increase over time”. In addition, in the series with cystinotic fibroblasts [2] (continued exposure, e.g. at 240 minute time points), the “intracellular levels of BL0940” value was “increase over time”. Also, in [3], the “intracellular cystine depletion (effect on cystine levels)” value is “less of an effect compared to D4-cystamine”. Moreover, in [4], the “effect on markers of inflammation, remodeling and fibrosis” value is “did not have the same degree of effect”. Further, the “stability in the medium and within the cell” value in series [5] is given as “very stable”.

With `NCCSSCCN` [cystamine, reference compound], in the series with cystinotic fibroblasts [6], the “Cysteamine levels (intracellular)” value is “nearly identical” and the “cystamine levels (intracellular)” value is “higher”. In the series with cystinotic fibroblasts [7], the “oxidized glutathione (GSSG)” value is recorded as “goes up at the first timepoint” and the “ratio of GSH/GSSG” value was “lower throughout all timepoints”.

In the case of `Cl.Cl.Cl.NCCSSC[C@H](N)C(=O)SCCN` [BL-0856, (S)-3-((2-ammonioethyl)disulfaneyl)-1-((2-ammonioethyl)thio)-1-oxopropan-2-aminium chloride], the cystine depletion rates entry in the series with cystinotic fibroblasts [8] is given as “nearly identical”. The “cysteine (intracellular)” value in the series with cystinotic fibroblasts [9] was “higher”. The “BL-0856 and the thiol reduced intermediate in cells” value in the series on cystinotic fibroblasts [6] (any of the timepoints, LC-MS/MS) is listed as “not found at high enough levels to be identified”. In addition, in the series on cystinotic fibroblasts [6], the “Cysteamine levels (intracellular)” value is on record as “nearly identical” and the “cystamine levels (intracellular)” value is “some cystamine still exists”. In the series with cystinotic fibroblasts [7] (between the 2 drug forms), the glutathione entry is “no obvious differences”. In the series with cystinotic fibroblasts [7], the “oxidized glutathione (GSSG)” value is “goes up at the first timepoint” and the “ratio of GSH/GSSG” value is on record as “lower throughout all timepoints”. Further, the cystine reaccumulation rate entry with cystinotic fibroblasts [10] is “comparable to cystamine”. The “content of resuspended drug (stability in water)” value in series [11] is “contained cysteamine and cystamine”.

As to `NCCS` [cysteamine], in series [12], the “depletion of intracellular cystine” value is reported as “up to 90%”.

`[2H]C([2H])(CN)SC(C)=O` [BL0948]: in the series with cystinotic fibroblasts [2], the “intracellular D2-cysteamine levels” value was “relatively high level”. Moreover, the “intracellular cystine depletion (effect on cystine levels)” value in [3] is “rapid and more profound”; in series [3] (listed as BL-948), “pronounced effect”. Besides, in series [5] (portion rearranges to the N-acetylated isomer), the “conversion of prodrug to D2-cysteamine” value is “does not convert entirely to D2-cysteamine”.

Turning to `[2H]C(CN)SSC([2H])CN` (stereo not shown) [D2-cystamine], the intrahepatic fibrosis result in series [1] was “significant reduction”. In series [1] (versus control groups), the “markers of fibrosis (aSMA)” value was “significant reduction”, the “markers of inflammation (F4/80)” value is “significant reduction” and the “markers of inflammation (FIG. 12A-B)” value is on record as “significant reduction”.

Take vitamin E: the “mean AST levels after treatment” value in series [13] (decreased from 104±61 IU/L) is recorded as 33±11 IU/L. The “mean ALT levels after treatment” value in [13] (decreased from 175±106 IU/L) was 40±26 IU/L.
